Experimental data reported in patent US20240246913A1, “2-CARBOXYL-INDOLE INHIBITORS OF METALLO-BETA-LACTAMASES” (Oxford University Innovation Limited, priority 2021, published 2024).

Legend:
[1] = Metabolic stability in human hepatocytes; format: in vitro ADME; details: cryopreserved human hepatocytes, 1 μM compound, 37° C., up to 90 min, read-out: Metabolic stability in hepatocytes, in vitro t1/2, Human
Method in brief: (§1)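 Cryopreserved hepatocytes at 1.0×10^6 cells/ml in Williams medium E were incubated with 1 μM compound (final) at 37° C. Samples at 0, 5, 15, 30, 60 and 90 min were quenched with MeCN containing warfarin internal standard and analysed by LC-MS/MS.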

[2] = Plasma protein binding, equilibrium dialysis, human plasma; format: in vitro ADME; details: pH 7.4, equilibrium dialysis (RED) 4 hours at 37° C., read-out: Plasma protein binding, fu, Human
Method in brief: (§2)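 Compound at 10 μM in plasma dialysed against 67 mM phosphate buffer pH 7.4 for 4 h at 37° C. in RED device; unbound fraction from buffer and plasma levels by LC-MS/MS. Plasma stability checked in parallel over 4 h at 37° C. versus frozen control.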

[3] = tested on: Escherichia coli NDM-7; experiment: Antibiotic susceptibility testing (MIC), EC NDM-7; format: cell-based; details: agar or broth dilution (CLSI/EUCAST)
Method: (§3) Antibiotic susceptibility testing was performed using the agar or broth dilution method, in line with the Clinical and Laboratory Standards Institute (CLSI) and European Committee on Antimicrobial Susceptibility Testing (EUCAST) requirements.

[4] = tested on: Escherichia coli NDM-1; experiment: Antibiotic susceptibility testing (MIC), EC NDM-1; format: cell-based; details: agar or broth dilution (CLSI/EUCAST)
Method: as §3

[5] = tested on: Acinetobacter baumannii NDM-1; experiment: Antibiotic susceptibility testing (MIC), AB NDM-1; format: cell-based; details: agar or broth dilution (CLSI/EUCAST)
Method: as §3

[6] = tested on: bacteria; experiment: Thigh and/or septicaemia mouse model of infection, with meropenem; format: in vivo; details: NMRI mice; single dose with meropenem subcutaneous 1 h after inoculation; endpoint 3 h after treatment initiation
Method: Female NMRI mice (5-6 weeks old, 26-30 gram, n=5) were rendered neutropenic via intraperitoneal injection of two doses of cyclophosphamide on day 4 and day 1 before infection. The animals were infected via intramuscular injection of an inoculum containing 10^6 CFU/mL of bacteria in the left thigh. The animals were treated with a single dose of meropenem subcutaneous +/− inhibitor 1 h after inoculation, and animals were either euthanised at the start of treatment or at the study endpoint at 3 h after treatment initiation. Clinical scores were monitored at 1 and 4 hours post inoculation and were in all cases mild or moderate. Thighs were aseptically removed from the animals, homogenised, diluted, and plated for incubation. Bacterial counting was performed after 18-22 h of incubation at 35° C. in ambient air.
Immunocompetent female NMRI mice mice (5-6 weeks old, 26-30 gram, n=5) were inoculated intraperitoneally with 0.5 ml inoculum containing 5×10^5 CFU suspended in 5% porcine mucin.
The animals were treated with a single dose of meropenem subcutaneous+/−metallo-b-lactamase inhibitor intravenous 1 h after inoculation. Animals were either euthanised at the start of treatment or at the study endpoint at 3 h after treatment initiation. Clinical scores were monitored at 1 and 4 hours post inoculation and were in all cases mild or moderate. Mice were anaesthetised anesthetized with a buprenorphine/tiletamine/zolazepam cocktail and bled, then euthanized and the peritoneum flushed with 2 ml sterile 0.9% NaCl and collected. The blood and/or peritoneal flush were serially diluted and plated for incubation. Bacterial counting was performed after 18-22 h of incubation at 35° C. in ambient air.

[7] = target: IMP-1 (Serratia marcescens, UniProt P52699); experiment: MBL inhibition, FC-5 fluorescence assay, IMP-1; format: biochemical; details: FC-5 cephalosporin substrate, fluorescence; ranges of obtained pIC50; read-out: pIC50 IMP-1 (converted)
IMP-1, sequence (P52699 19-246, looked up, species assumed): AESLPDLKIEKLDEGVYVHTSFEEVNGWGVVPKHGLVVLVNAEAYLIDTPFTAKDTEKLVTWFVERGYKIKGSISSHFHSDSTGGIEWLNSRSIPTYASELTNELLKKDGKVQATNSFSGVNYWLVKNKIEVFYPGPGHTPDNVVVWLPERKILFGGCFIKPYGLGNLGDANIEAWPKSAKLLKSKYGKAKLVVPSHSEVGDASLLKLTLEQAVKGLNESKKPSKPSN
Method in brief: (§4)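 Reported potencies derive from normalized dose-response fits with variable slope, built on initial hydrolysis rates of fluorogenic cephalosporin FC-5 monitored at 380/460 nm, with quadruplicate wells at every concentration.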

[8] = target: VIM-1 (Pseudomonas aeruginosa, UniProt A0A0F7KYQ8); experiment: MBL inhibition, FC-5 fluorescence assay, VIM-1; format: biochemical; details: FC-5 cephalosporin substrate, ranges of obtained pIC50, read-out: pIC50 VIM-1 (converted)
Method in brief: as §4

[9] = Metabolic stability in mouse hepatocytes; format: in vitro ADME; details: cryopreserved mouse hepatocytes, 1 μM compound, 37° C., up to 90 min, read-out: Metabolic stability in hepatocytes, in vitro t1/2, Mouse
Method in brief: as §1

[10] = Plasma protein binding, equilibrium dialysis, mouse plasma; format: in vitro ADME; details: pH 7.4, equilibrium dialysis (RED) 4 hours at 37° C., read-out: Plasma protein binding, fu, Mouse
Method in brief: as §2

[11] = target: VIM-2 (Escherichia coli, UniProt Q5U7L7); experiment: MBL inhibition, FC-5 fluorescence assay, VIM-2; format: biochemical; details: FC-5 cephalosporin substrate, ranges of obtained pIC50, read-out: pIC50 VIM-2 (converted)
Method in brief: as §4

[12] = target: NDM-1 (Klebsiella pneumoniae, UniProt C7C422); experiment: MBL inhibition, FC-5 fluorescence assay, NDM-1; format: biochemical; details: FC-5 cephalosporin substrate, fluorescence; ranges of obtained pIC50; read-out: pIC50 NDM-1 (converted)
NDM-1, sequence (C7C422 29-270, looked up, species assumed): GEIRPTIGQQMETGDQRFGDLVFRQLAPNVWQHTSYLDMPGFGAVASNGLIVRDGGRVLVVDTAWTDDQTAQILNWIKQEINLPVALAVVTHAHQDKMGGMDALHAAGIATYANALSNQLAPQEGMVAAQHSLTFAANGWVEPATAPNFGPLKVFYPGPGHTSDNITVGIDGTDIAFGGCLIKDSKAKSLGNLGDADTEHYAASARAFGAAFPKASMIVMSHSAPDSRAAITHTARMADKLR
Method in brief: as §4

Row | Structure (SMILES) | half-life at 1 μM [1] | fraction unbound at 4 h, 10 μM [2] | MIC values EC NDM-7 [3] | MIC values EC NDM-1 [4] | MIC values AB NDM-1 [5] | Dose required to reduce minim 1 log fold CFU in a thigh and or a sepsis animal model [6] | IC50 [7] | IC50 [8] | half-life at 1 μM [9] | fraction unbound at 4 h, 10 μM [10] | IC50 [11] | IC50 [12]
1 | C[C@@H](c1cccc2c(-c3ccc(NS(C)(=O)=O)c(F)c3)c(C(=O)O)[nH]c12)n1cc(CN2CC(N)C2)oc1=O [IC-57, 7-[(1S)-1-{5-[(3-Aminoazetidin-1-yl)methyl]-2-oxo-2,3-dihydro-1,3-oxazol-3-yl}ethyl]-3-(3-fluoro-4-methanesulfonamidophenyl)-1H-indole-2-carboxylic acid] | 2.5 to 6.67 h | 0.05 to 0.25 | A (A = MIC values ≤ 1) | A (A = MIC values ≤ 1) | A (A = MIC values ≤ 1) | B (B = 30-10 mg/kg) | > 10 nM | 1 to 10 nM | < 2.5 h | 0.005 to 0.05 | 0.1 to 1 nM | < 0.1 nM
2 | C[C@@H](c1cccc2c(-c3ccc(CS(C)(=O)=O)c(F)c3)c(C(=O)O)[nH]c12)N1C[C@]2(C[C@@H](CN)C2)OC1=O [IC-60, 7-((1S)-1-(2S,4r)-(2-(aminomethyl)-6-oxo-5-oxa-7-azaspiro[3.4]oct-7-yl)ethyl)-3-(3-fluoro-4-((methylsulfonyl)methyl)phenyl)-1H-indole-2-carboxylic acid] | > 6.67 h | > 0.25 | A (A = MIC values ≤ 1) | A (A = MIC values ≤ 1) | A (A = MIC values ≤ 1) | C (C = 5-10 mg/kg) | > 10 nM | 0.1 to 1 nM | > 6.67 h | 0.05 to 0.25 | 0.1 to 1 nM | < 0.1 nM
3 | C[C@@H](c1cccc2c(-c3ccc(CS(C)(=O)=O)c(F)c3)c(C(=O)O)[nH]c12)N1C[C@]2(C[C@H](CN)C2)OC1=O [IC-61, 7-((1S)-1-(2R,4s)-(2-(aminomethyl)-6-oxo-5-oxa-7-azaspiro[3.4]oct-7-yl)ethyl)-3-(3-fluoro-4-((methylsulfonyl)methyl)phenyl)-1H-indole-2-carboxylic acid] | > 6.67 h | 0.05 to 0.25 | A (A = MIC values ≤ 1) | A (A = MIC values ≤ 1) | B (B MIC values 2 ÷ 8) | C (C = 5-10 mg/kg) | 1 to 10 nM | 0.1 to 1 nM | > 6.67 h | 0.005 to 0.05 | < 0.1 nM | < 0.1 nM
